Measurements: patent US20260265252A1, “SOLID STATE FORMS OF IMIPRIDONE DERIVATIVE” (CHIMERIX, INC., priority 2024, published 2026)
Structures can show the parent of a compound that is named as a salt.

Experiment: ICH-compliant stability study of ONC206-HCl Drug Substance (appearance, XRPD form, HPLC assay, purity/impurities, water content, particle size, microbial)
Format: physicochemical
Parameters: key to Each unidentified impurity (NMT 0.5% area) / Appearance (White to off-white solid) / Polymorphic form (XRPD) (Consistent with form 2 reference diffractogram): C = Conforms; A = Absence
Method: The purpose of the ICH-compliant stability study was to evaluate the performance to specifications of ONC206-HCl Drug Substance under specified container closure configuration, storage conditions, and intervals.
The study was performed according to ICH Q1A(R2) and QlE Guidance documents. […]
The Container Closure Systems were: • Primary container: LDPE bag, 4×8 inches (Source: Nexus—64378); bag closure PE 180 nm (Source: Entourage), • Secondary container: LDPE bag, 4×8 inches (Source: Nexus—64378); bag closure PE 180 nm (Source: Entourage), • Tertiary container: Heat-sealed foil bag, 15×30 (Source: SERCALIA S.L.—10234), and • Outer container: Plastic drum, 6 L (Source: Curtec, HDPE ref 54021) or Plastic drum, 3.6 L (Source: Curtec).

[1] = 25 ± 2° C./60% ± 5% RH long term storage conditions, 0 months
[2] = 25 ± 2° C./60% ± 5% RH long term storage conditions, 3 months
[3] = 25 ± 2° C./60% ± 5% RH long term storage conditions, 6 months
[4] = 25 ± 2° C./60% ± 5% RH long term storage conditions, 9 months
[5] = 25 ± 2° C./60% ± 5% RH long term storage conditions, 12 months
[6] = 30 ± 2° C./65% ± 5% RH intermediate conditions, 0 months
[7] = 30 ± 2° C./65% ± 5% RH intermediate conditions, 6 months
[8] = 30 ± 2° C./65% ± 5% RH intermediate conditions, 9 months

O=C1C2=C(CCN(Cc3ccccc3)C2)N2CCN=C2N1Cc1ccc(F)cc1F [ONC206-HCl, 7-benzyl-4-(2,4-difluorobenzyl)-2,4,6,7,8,9-hexahydroimidazo[1,2-a]pyrido[3,4-e]pyrimidin-5(1H)-one]
period over which stability is confirmed (2-8° C. (Table 39)): 6 months | Appearance (White to off-white solid) (2-8° C., 0 months): C | Assay by HPLC-UV (Anhydrous & Solvent Free basis) 97.0-103.0% w/w (2-8° C., 0 months): 101.6 % w/w | Each unidentified impurity (NMT 0.5% area) (2-8° C., 0 months): C | Particle Size (Malvern) D10 (Report result μm) (2-8° C., 0 months): 28.2 μm | Particle Size (Malvern) D50 (Report result μm) (2-8° C., 0 months): 91.4 μm | Particle Size (Malvern) D90 (Report result μm) (2-8° C., 0 months): 201.3 μm | Polymorphic form (XRPD) (Consistent with form 2 reference diffractogram) (2-8° C., 0 months): C | Purity by HPLC (NLT 98.0% area) (2-8° C., 0 months): 100.0 % area | Total impurities (NMT 2.0% area) (2-8° C., 0 months): 0.00 % area | Water Content by Kf (Report result % w/w) (2-8° C., 0 months): 9.3 % w/w | Appearance (White to off-white solid) (2-8° C., 1 months): C | Assay by HPLC-UV (Anhydrous & Solvent Free basis) 97.0-103.0% w/w (2-8° C., 1 months): 101.3 % w/w | Each unidentified impurity (NMT 0.5% area) (2-8° C., 1 months): C | Particle Size (Malvern) D10 (Report result μm) (2-8° C., 1 months): 27.8 μm | Particle Size (Malvern) D50 (Report result μm) (2-8° C., 1 months): 89.8 μm | Particle Size (Malvern) D90 (Report result μm) (2-8° C., 1 months): 196.0 μm | Polymorphic form (XRPD) (Consistent with form 2 reference diffractogram) (2-8° C., 1 months): C | Purity by HPLC (NLT 98.0% area) (2-8° C., 1 months): 100.0 % area | Total impurities (NMT 2.0% area) (2-8° C., 1 months): 0.00 % area | Water Content by Kf (Report result % w/w) (2-8° C., 1 months): 9.2 % w/w | Appearance (White to off-white solid) (2-8° C., 2 months): C | Assay by HPLC-UV (Anhydrous & Solvent Free basis) 97.0-103.0% w/w (2-8° C., 2 months): 100.3 % w/w | Each unidentified impurity (NMT 0.5% area) (2-8° C., 2 months): C | Particle Size (Malvern) D10 (Report result μm) (2-8° C., 2 months): 29.4 μm | Particle Size (Malvern) D50 (Report result μm) (2-8° C., 2 months): 91.6 μm | Particle Size (Malvern) D90 (Report result μm) (2-8° C., 2 months): 189.0 μm | Polymorphic form (XRPD) (Consistent with form 2 reference diffractogram) (2-8° C., 2 months): C | Purity by HPLC (NLT 98.0% area) (2-8° C., 2 months): 100.0 % area | Total impurities (NMT 2.0% area) (2-8° C., 2 months): 0.00 % area | Water Content by Kf (Report result % w/w) (2-8° C., 2 months): 9.4 % w/w | Appearance (White to off-white solid) (2-8° C., 3 months): C | Assay by HPLC-UV (Anhydrous & Solvent Free basis) 97.0-103.0% w/w (2-8° C., 3 months): 100.3 % w/w | Each unidentified impurity (NMT 0.5% area) (2-8° C., 3 months): C | Particle Size (Malvern) D10 (Report result μm) (2-8° C., 3 months): 28.3 μm | Particle Size (Malvern) D50 (Report result μm) (2-8° C., 3 months): 90.9 μm | Particle Size (Malvern) D90 (Report result μm) (2-8° C., 3 months): 197.0 μm | Polymorphic form (XRPD) (Consistent with form 2 reference diffractogram) (2-8° C., 3 months): C | Purity by HPLC (NLT 98.0% area) (2-8° C., 3 months): 100.0 % area | Total impurities (NMT 2.0% area) (2-8° C., 3 months): 0.00 % area | Water Content by Kf (Report result % w/w) (2-8° C., 3 months): 9.5 % w/w | Appearance (White to off-white solid) (2-8° C., 6 months): C | Assay by HPLC-UV (Anhydrous & Solvent Free basis) 97.0-103.0% w/w (2-8° C., 6 months): 99.6 % w/w | Each unidentified impurity (NMT 0.5% area) (2-8° C., 6 months): C | Particle Size (Malvern) D10 (Report result μm) (2-8° C., 6 months): 28.3 μm | Particle Size (Malvern) D50 (Report result μm) (2-8° C., 6 months): 91.1 μm | Particle Size (Malvern) D90 (Report result μm) (2-8° C., 6 months): 199.0 μm | Polymorphic form (XRPD) (Consistent with form 2 reference diffractogram) (2-8° C., 6 months): C | Purity by HPLC (NLT 98.0% area) (2-8° C., 6 months): 100.0 % area | Total impurities (NMT 2.0% area) (2-8° C., 6 months): 0.00 % area | Water Content by Kf (Report result % w/w) (2-8° C., 6 months): 9.3 % w/w | period over which stability is confirmed (25° C. (Table 42), 60% RH long term storage conditions): 12 months | Appearance (White to off-white solid) [1]: C | Assay by HPLC-UV (Anhydrous & Solvent Free basis) 97.0-103.0% w/w [1]: 101.6 % w/w | Each unidentified impurity (NMT 0.5% area) [1]: C | Particle Size (Malvern) D10 (Report result μm) [1]: 28.2 μm | Particle Size (Malvern) D50 (Report result μm) [1]: 91.4 μm | Particle Size (Malvern) D90 (Report result μm) [1]: 201.3 μm | Polymorphic form (XRPD) (Consistent with form 2 reference diffractogram) [1]: C | Purity by HPLC (NLT 98.0% area) [1]: 100.0 % area | Total impurities (NMT 2.0% area) [1]: 0.00 % area | Water Content by Kf (Report result % w/w) [1]: 9.3 % w/w | Appearance (White to off-white solid) [2]: C | Assay by HPLC-UV (Anhydrous & Solvent Free basis) 97.0-103.0% w/w [2]: 99.1 % w/w | Each unidentified impurity (NMT 0.5% area) [2]: C | Particle Size (Malvern) D10 (Report result μm) [2]: 28.3 μm | Particle Size (Malvern) D50 (Report result μm) [2]: 91.4 μm | Particle Size (Malvern) D90 (Report result μm) [2]: 199.0 μm | Polymorphic form (XRPD) (Consistent with form 2 reference diffractogram) [2]: C | Purity by HPLC (NLT 98.0% area) [2]: 100.0 % area | Total impurities (NMT 2.0% area) [2]: 0.00 % area | Water Content by Kf (Report result % w/w) [2]: 9.5 % w/w | Appearance (White to off-white solid) [3]: C | Assay by HPLC-UV (Anhydrous & Solvent Free basis) 97.0-103.0% w/w [3]: 100.2 % w/w | Each unidentified impurity (NMT 0.5% area) [3]: C | Particle Size (Malvern) D10 (Report result μm) [3]: 26.8 μm | Particle Size (Malvern) D50 (Report result μm) [3]: 88.5 μm | Particle Size (Malvern) D90 (Report result μm) [3]: 196.0 μm | Polymorphic form (XRPD) (Consistent with form 2 reference diffractogram) [3]: C | Purity by HPLC (NLT 98.0% area) [3]: 100.0 % area | Total impurities (NMT 2.0% area) [3]: 0.00 % area | Water Content by Kf (Report result % w/w) [3]: 9.3 % w/w | Appearance (White to off-white solid) [4]: C | Assay by HPLC-UV (Anhydrous & Solvent Free basis) 97.0-103.0% w/w [4]: 100.4 % w/w | Each unidentified impurity (NMT 0.5% area) [4]: C | Particle Size (Malvern) D10 (Report result μm) [4]: 30.2 μm | Particle Size (Malvern) D50 (Report result μm) [4]: 92.2 μm | Particle Size (Malvern) D90 (Report result μm) [4]: 192.0 μm | Polymorphic form (XRPD) (Consistent with form 2 reference diffractogram) [4]: C | Purity by HPLC (NLT 98.0% area) [4]: 100.0 % area | Total impurities (NMT 2.0% area) [4]: 0.00 % area | Water Content by Kf (Report result % w/w) [4]: 9.3 % w/w | Appearance (White to off-white solid) [5]: C | Assay by HPLC-UV (Anhydrous & Solvent Free basis) 97.0-103.0% w/w [5]: 99.6 % w/w | Each unidentified impurity (NMT 0.5% area) [5]: C | Particle Size (Malvern) D10 (Report result μm) [5]: 28.1 μm | Particle Size (Malvern) D50 (Report result μm) [5]: 91.3 μm | Particle Size (Malvern) D90 (Report result μm) [5]: 203.0 μm | Polymorphic form (XRPD) (Consistent with form 2 reference diffractogram) [5]: C | Purity by HPLC (NLT 98.0% area) [5]: 100.0 % area | Total impurities (NMT 2.0% area) [5]: 0.00 % area | Water Content by Kf (Report result % w/w) [5]: 9.3 % w/w | period over which stability is confirmed (30° C. (Table 43), 65% RH intermediate conditions): 12 months | Appearance (White to off-white solid) [6]: C | Assay by HPLC-UV (Anhydrous & Solvent Free basis) 97.0-103.0% w/w [6]: 101.6 % w/w | Each unidentified impurity (NMT 0.5% area) [6]: C | Particle Size (Malvern) D10 (Report result μm) [6]: 28.2 μm | Particle Size (Malvern) D50 (Report result μm) [6]: 91.4 μm | Particle Size (Malvern) D90 (Report result μm) [6]: 201.3 μm | Polymorphic form (XRPD) (Consistent with form 2 reference diffractogram) [6]: C | Purity by HPLC (NLT 98.0% area) [6]: 100.0 % area | Total impurities (NMT 2.0% area) [6]: 0.00 % area | Water Content by Kf (Report result % w/w) [6]: 9.3 % w/w | Appearance (White to off-white solid) [7]: C | Assay by HPLC-UV (Anhydrous & Solvent Free basis) 97.0-103.0% w/w [7]: 99.2 % w/w | Each unidentified impurity (NMT 0.5% area) [7]: C | Particle Size (Malvern) D10 (Report result μm) [7]: 29.3 μm | Particle Size (Malvern) D50 (Report result μm) [7]: 92.1 μm | Particle Size (Malvern) D90 (Report result μm) [7]: 199.0 μm | Polymorphic form (XRPD) (Consistent with form 2 reference diffractogram) [7]: C | Purity by HPLC (NLT 98.0% area) [7]: 100.0 % area | Total impurities (NMT 2.0% area) [7]: 0.00 % area | Water Content by Kf (Report result % w/w) [7]: 9.3 % w/w | Appearance (White to off-white solid) [8]: C | Assay by HPLC-UV (Anhydrous & Solvent Free basis) 97.0-103.0% w/w [8]: 100.2 % w/w | Each unidentified impurity (NMT 0.5% area) [8]: C
